Assay results as given in patent EP1206258B1, “COMPOSITIONS CONTAINING ESTERS FOR TREATING PARASITIC INFESTATIONS OF ORGANISMS” (priority 1999, dated 2001).

Tests used:
Acarus siro = test: further residual filter paper bioassay on grain/flour mite Acarus siro (Table 2b); details: for % mortality: ethanol control 24.00
Method: A further study was carried out to investigate the effect of Ethyl cinnamate on the grain/flour mite Acarus siro using a residual filter paper bioassay. Mites from a colony grown at 25°C ± 85% RH were removed using a spatular and placed into a petri dish. 275 µ of the cinnamate was placed onto a filter paper in one well of a 6 well (17 ml) cell culture plate and likewise, 275 µ of DH2O was placed on another piece of 4 cm Whatman filter paper in a second well. Mixed instars (male + female) were added to each well. The actual number of instars was unknown in each case, since the test only sought to establish the presence of activity; measured in terms of cidal effect (knockdown). The duration of the test was 5 ± days. Both treatments were incubated at 25°C ± 85% RH and each well was checked 4 times daily. Small amounts of food mix of yeastea 20B and wheat germ in the ratio 3 : 1 were included on the filter paper in both treatments.
The treatment was later modified : 2, 10 cm Whatman filter papers were cut to ø of 3 cm and placed in the mite culture. After 10 minutes they were removed using forceps. The mites were then swept into each well respective of treatment. The cinnamate provided too glutenous (viscous) to be used undiluted. Therefore, it was dissolved using 10 fold dilutions in ethanol. Therefore 30 µ cinnamate : 270 µ ethanol to the extent of 10-4. The control was ethanol.
The above experiment was repeated.

eggs of L.sericata = test: in vitro test on hatching of eggs of L.sericata (immersion); parameters: species or system Lucilia sericata; details: V/V in 2.0% W/V aqueous lecithin
Method: A series of in vitro tests were carried out to investigate the effects of the compound trans-cinnamic acid ethyl ester on the hatching of eggs of L.sericata.
A blowfly culture originating from the Central Veterinary Laboratory based in Weybridge, Surrey was used for the tests. None of the original adults had previously been exposed or resistant to insecticides. Eggs aged 10±2 hours of the blowfly were harvested on pig's liver in clusters using a prolene 4/0 paintbrush and examined under the binocular microscope for suitablility. Adult females used to produce these eggs were kept at 20°C, rh 70±5%, with a photoperiod of 8 hours. Groups of 30 eggs were then immediately transferred to a 9-cm Whatman filter paper in a 9-cm plastic petri dish. Two ml of cinnamic acid ethyl ester at concentrations in the range 1.0%; 2.5%; 5.0%; 7.5% and 10.0% V/V was poured gently into the petri dish immersing the eggs. Each concentration was previously prepared by dilution of active compound in a 2.0% W/V aqueous lecithin solution pre-warmed to 20°C. The mixture was sonicated for two minutes. After an exposure time of 1 minute, the test solution was carefully poured off and the eggs recovered individually to a 7ml polythene container in which a filter paper was saturated with pig's liver washings. […] Eggs following treatment were incubated at 25°C, rh 70±2% with a photoperiod of 8 hours duration. Hatching typically occurred within 12 hours of treatment.
Each concentration was replicated twice; controls were treated using only lecithin solution. The whole experiment was repeated using two further exposure times of 30 minutes and 90 minutes respectively.
The data were analysed using fitted curve graphical analysis. […] The data gathered from the experiment with an exposure time of 1 minute was also expressed using the probit transformation.
Fitted curves were used to calculate the concentration required to kill 50% of the eggs, (LC50) using the data obtained after immersing the eggs in solutions ranging from 1.0% to 10.0% V/V. The median lethal concentrations, (LC50) and LC95 concentrations are shown in Table 4 below:- Table 4

Fusarium culmorum = test: growth inhibition test on SAB agar, F. culmorum; format: cell-based
Method: The antifungal activity of ethyl trans-cinnamate against a number of different fungi was investigated by means of in a simple growth inhibition test.
The following quantities of Ethyl trans-Cinnamate were added to Sabourand Dextrose agar (SAB); 50 ml L^-1, 4ml L^-1, 2ml L^-1, 1ml L^-1, 400 µl L^-1, 200 µl L^-1 and 40 µl L^-1. […] These were then autoclaved and poured into standard Petri dishes. […] Duplicate plates of each concentration, plus control plates containing only SAB Agar, where then separately inoculated with, four different species of fungi, these were Aspergillus nidulans, Penicillium digitatum, Rhizopus arrhizus and Fusarium culmorum. Inoculation was carried out using a single stab at the centre of each Petri dish. The plates were then incubated at 30°C for 6 days and daily measurements of mycobial growth where taken every 24 hours.

Aspergillus nidulans = test: growth inhibition test on SAB agar, A. nidulans; format: cell-based; details: 50ml L-^1 and higher doses; further experiments, data not shown
Rat = details: Oral, Russell 1973; cited from earlier work
Mouse = details: Oral, VPITAR 33(5)48,74; cited from earlier work
Rabbit = details: Dermal, FRMM; cited from earlier work
[1] = Lethal Concentrations at 1 minute
[2] = Lethal Concentrations at 30 minutes

## CCOC(=O)/C=C/c1ccccc1 [trans-cinnamic acid ethyl ester]
Acarus siro; Concentration 10-1 (dilution in ethanol)
  % mortality: 100.00%
Acarus siro; Concentration 10-2 (dilution in ethanol)
  % mortality: 100.00%
Acarus siro; Concentration 10-3 (dilution in ethanol)
  % mortality: 98.40%
Acarus siro; Concentration 10-4 (dilution in ethanol)
  % mortality: 86.00%
Acarus siro; undiluted dose, approximately
  time to 100% mortality: less than 15 minutes
Eggs of L.sericata; [1]
  LC50: LC50 2.76%
  LC95: LC95>7.50%
Eggs of L.sericata; [2]
  LC50: LC50 1.78%
  LC95: LC95>5.00%
Eggs of L.sericata; Lethal Concentrations at 90 minutes
  LC50: LC50 0.36%
Fusarium culmorum; 1ml L^-1, Day 1
  Level of Radial Growth (mm) of F. culmorum: 0 mm
Fusarium culmorum; 1ml L^-1, Day 2
  Level of Radial Growth (mm) of F. culmorum: 0 mm
Fusarium culmorum; 1ml L^-1, Day 3
  Level of Radial Growth (mm) of F. culmorum: 0 mm
Fusarium culmorum; 1ml L^-1, Day 4
  Level of Radial Growth (mm) of F. culmorum: 0 mm
Fusarium culmorum; 1ml L^-1, Day 5
  Level of Radial Growth (mm) of F. culmorum: 0 mm
Fusarium culmorum; 1ml L^-1, Day 6
  Level of Radial Growth (mm) of F. culmorum: 0 mm
Fusarium culmorum; 2ml L^-1, Day 1
  Level of Radial Growth (mm) of F. culmorum: 0 mm
Fusarium culmorum; 2ml L^-1, Day 2
  Level of Radial Growth (mm) of F. culmorum: 0 mm
Fusarium culmorum; 2ml L^-1, Day 3
  Level of Radial Growth (mm) of F. culmorum: 0 mm
Fusarium culmorum; 2ml L^-1, Day 4
  Level of Radial Growth (mm) of F. culmorum: 0 mm
Fusarium culmorum; 2ml L^-1, Day 5
  Level of Radial Growth (mm) of F. culmorum: 0 mm
Fusarium culmorum; 2ml L^-1, Day 6
  Level of Radial Growth (mm) of F. culmorum: 0 mm
Fusarium culmorum; 4ml L^-1, Day 1
  Level of Radial Growth (mm) of F. culmorum: 0 mm
Fusarium culmorum; 4ml L^-1, Day 2
  Level of Radial Growth (mm) of F. culmorum: 0 mm
Fusarium culmorum; 4ml L^-1, Day 3
  Level of Radial Growth (mm) of F. culmorum: 0 mm
Fusarium culmorum; 4ml L^-1, Day 4
  Level of Radial Growth (mm) of F. culmorum: 0 mm
Fusarium culmorum; 4ml L^-1, Day 5
  Level of Radial Growth (mm) of F. culmorum: 0 mm
Fusarium culmorum; 4ml L^-1, Day 6
  Level of Radial Growth (mm) of F. culmorum: 0 mm
Fusarium culmorum; 40µl L^-1, Day 1
  Level of Radial Growth (mm) of F. culmorum: 0 mm
Fusarium culmorum; 40µl L^-1, Day 2
  Level of Radial Growth (mm) of F. culmorum: 0 mm
Fusarium culmorum; 40µl L^-1, Day 3
  Level of Radial Growth (mm) of F. culmorum: 1 mm
Fusarium culmorum; 40µl L^-1, Day 4
  Level of Radial Growth (mm) of F. culmorum: 1 mm
Fusarium culmorum; 40µl L^-1, Day 5
  Level of Radial Growth (mm) of F. culmorum: 2 mm
Fusarium culmorum; 40µl L^-1, Day 6
  Level of Radial Growth (mm) of F. culmorum: 6 mm
Fusarium culmorum; 50ml L-^1 and higher doses, further experiments, data not shown
  duration of complete inhibition of growth: at least 8 days
Fusarium culmorum; 50ml L-^1 level
  inhibition of growth: complete inhibition of growth
Fusarium culmorum; 50 ml L^-1, Day 1
  Level of Radial Growth (mm) of F. culmorum: 0 mm
Fusarium culmorum; 50 ml L^-1, Day 2
  Level of Radial Growth (mm) of F. culmorum: 0 mm
Fusarium culmorum; 50 ml L^-1, Day 3
  Level of Radial Growth (mm) of F. culmorum: 0 mm
Fusarium culmorum; 50 ml L^-1, Day 4
  Level of Radial Growth (mm) of F. culmorum: 0 mm
Fusarium culmorum; 50 ml L^-1, Day 5
  Level of Radial Growth (mm) of F. culmorum: 0 mm
Fusarium culmorum; 50 ml L^-1, Day 6
  Level of Radial Growth (mm) of F. culmorum: 0 mm
Fusarium culmorum; 200µl L^-1, Day 1
  Level of Radial Growth (mm) of F. culmorum: 0 mm
Fusarium culmorum; 200µl L^-1, Day 2
  Level of Radial Growth (mm) of F. culmorum: 0 mm
Fusarium culmorum; 200µl L^-1, Day 3
  Level of Radial Growth (mm) of F. culmorum: 0 mm
Fusarium culmorum; 200µl L^-1, Day 4
  Level of Radial Growth (mm) of F. culmorum: 1 mm
Fusarium culmorum; 200µl L^-1, Day 5
  Level of Radial Growth (mm) of F. culmorum: 2 mm
Fusarium culmorum; 200µl L^-1, Day 6
  Level of Radial Growth (mm) of F. culmorum: 6 mm
Fusarium culmorum; 400µl L^-1, Day 1
  Level of Radial Growth (mm) of F. culmorum: 0 mm
Fusarium culmorum; 400µl L^-1, Day 2
  Level of Radial Growth (mm) of F. culmorum: 0 mm
Fusarium culmorum; 400µl L^-1, Day 3
  Level of Radial Growth (mm) of F. culmorum: 0 mm
Fusarium culmorum; 400µl L^-1, Day 4
  Level of Radial Growth (mm) of F. culmorum: 1 mm
Fusarium culmorum; 400µl L^-1, Day 5
  Level of Radial Growth (mm) of F. culmorum: 2 mm
Fusarium culmorum; 400µl L^-1, Day 6
  Level of Radial Growth (mm) of F. culmorum: 6 mm
Aspergillus nidulans
  duration of complete inhibition of growth: at least 8 days
Rat
  LDSO: 7800 mg/kg
Mouse
  LDSO: 4000 mg/kg
Rabbit
  LDSO: >5000 mg·kg
